Measured values: patent US6008222A (Bristol-Myers Squibb Company, priority 1997, dated 1999)
Entries after “also recorded” stand apart in the source; their conditions may differ. Values belong to the molecule of their own block, whether it stands above or below them.

Key:
cytochrome P4503A3/4 = settings: J. Clin. Psychiatry, 57:7, July 1996; cited from earlier work
cytochrome P4503A4 = settings: cited from earlier work
[1] = J. Clin. Psychiatry, 57:7, July 1996; cited from earlier work
[2] = six subject pharmacokinetic study: buspirone and 1-PP blood levels following seven days of drug administration
clinical = settings: human, in vivo, po
[3] = in vivo, cited from earlier work
[4] = tested on: anxiety disorders and depression; settings: U.S. Pat. No. 3,717,634; cited from earlier work
[5] = tested on: patients undergoing diazepam-withdrawal; settings: human, in vivo; cited from earlier work
[6] = human, in vivo
antidepressant effect = settings: co-administered with an antidepressant drug regimen such as fluoxetine; cited from earlier work
[7] = tested on: diazepam-withdrawn animals; settings: cited from earlier work
anxiolytic activity = settings: cited from earlier work
rat = settings: systemic administration of 1-PP; cited from earlier work
diazepam-naive subjects = settings: previous studies; cited from earlier work
[8] = human, in vivo; cited from earlier work

SMILES: CCc1nn(CCCN2CCN(c3cccc(Cl)c3)CC2)c(=O)n1CCOc1ccccc1 [Nefazodone]
inhibition of cytochrome P4503A3/4 (cytochrome P4503A3/4): inhibition
inhibition of cytochrome P4503A4 (cytochrome P4503A4): an inhibitor
effect on concentration and toxicity of alprazolam and triazolam [1]: increasing the concentration and toxicity of alprazolam and triazolam
inhibition of buspirone metabolism ([2]; in the presence of nefazodone, preliminary study data): marked inhibition of buspirone metabolism

AUC(0-t) at […] (clinical): 29.4 ± 9.9 ng·h/mL
Cmax at […] (clinical): 8 ± 3.3 ng/mL
Tmax at […] (clinical): 1 h
half-life at […] (clinical; T1/2 of buspirone): 2.6 ± 1.8 h
disappearance of buspirone ([2]; concurrent administration of nefazodone): delayed
intra- and inter-patient variations in blood levels [6]: reduced
SMILES: O=C1CC2(CCCC2)CC(=O)N1CCCCN1CCN(c2ncccn2)CC1 [Buspirone, 8-[4-[4-(2-pyrimidinyl)1-piperazinyl]butyl]-8-azaspiro(4,5)-decane,7,9-dione]
absorption ([3]; po): rapidly absorbed
effectiveness for the treatment of anxiety disorders and depression [4]: effective
treatment of patients undergoing diazepam-withdrawal [5]: failed to adequately treat
augmentation of an antidepressant effect (antidepressant effect): effective

SMILES: c1cnc(N2CCNCC2)nc1 [1-PP, 1-(2-pyrimidinyl)-piperazine]
plasma levels of 1-PP [3]: much higher plasma levels
effect in social interaction paradigms [7]: anxiogenic effect
anxiolytic activity (anxiolytic activity; certain tests / earlier animal testing): (weak) antianxiety activity; also recorded: weak anxiolytic activity
antagonism of the anxiolytic and/or antidepressant action of buspirone (anxiolytic activity; other tests): antagonizes the desired anxiolytic and/or antidepressant action of buspirone
antagonism of intracerebral buspirone activity (rat): could be blocked
effect on social interaction (diazepam-naive subjects): not shown any effect
association of high 1-PP levels with undesired or adverse events [8]: associated with the occurrence of undesired or adverse events
intra- and inter-patient variations in blood levels [6]: reduced
